Numbers after ± are expanded uncertainties.
Assay: mn = molality of the nth substance listed, in mol/kg
Conditions: 101 kPa, Liquid; for speed of sound: Pulse-echo method

[Co+2].[O-][Cl+3]([O-])([O-])[O-].[O-][Cl+3]([O-])([O-])[O-] [cobalt(II) perchlorate] + CO
mass density (283.15 K, m1 = 0.04954): 810.666 ± 0.47 kg/m3 | mass density (283.15 K, m1 = 0.0652): 813.871 ± 0.47 kg/m3 | mass density (283.15 K, m1 = 0.08043): 816.972 ± 0.46 kg/m3 | mass density (283.15 K, m1 = 0.09601): 820.184 ± 0.46 kg/m3 | mass density (283.15 K, m1 = 0.1106): 823.205 ± 0.45 kg/m3 | mass density (283.15 K, m1 = 0.1255): 826.259 ± 0.45 kg/m3 | mass density (283.15 K, m1 = 0.157): 832.839 ± 0.44 kg/m3 | mass density (283.15 K, m1 = 0.1876): 839.345 ± 0.44 kg/m3 | mass density (283.15 K, m1 = 0.2171): 845.636 ± 0.43 kg/m3 | mass density (283.15 K, m1 = 0.2464): 851.879 ± 0.42 kg/m3 | mass density (283.15 K, m1 = 0.2747): 858.053 ± 0.42 kg/m3 | mass density (283.15 K, m1 = 0.3036): 864.446 ± 0.41 kg/m3 | mass density (288.15 K, m1 = 0.04954): 806.009 ± 0.48 kg/m3 | mass density (288.15 K, m1 = 0.0652): 809.222 ± 0.47 kg/m3 | mass density (288.15 K, m1 = 0.08043): 812.325 ± 0.47 kg/m3 | mass density (288.15 K, m1 = 0.09601): 815.542 ± 0.46 kg/m3 | mass density (288.15 K, m1 = 0.1106): 818.568 ± 0.46 kg/m3 | mass density (288.15 K, m1 = 0.1255): 821.625 ± 0.46 kg/m3 | mass density (288.15 K, m1 = 0.157): 828.214 ± 0.45 kg/m3 | mass density (288.15 K, m1 = 0.1876): 834.726 ± 0.44 kg/m3 | mass density (288.15 K, m1 = 0.2171): 841.028 ± 0.43 kg/m3 | mass density (288.15 K, m1 = 0.2464): 847.275 ± 0.43 kg/m3 | mass density (288.15 K, m1 = 0.2747): 853.458 ± 0.42 kg/m3 | mass density (288.15 K, m1 = 0.3036): 859.854 ± 0.41 kg/m3 | mass density (293.15 K, m1 = 0.04954): 801.334 ± 0.48 kg/m3 | mass density (293.15 K, m1 = 0.0652): 804.551 ± 0.48 kg/m3 | mass density (293.15 K, m1 = 0.08043): 807.661 ± 0.47 kg/m3 | mass density (293.15 K, m1 = 0.09601): 810.881 ± 0.47 kg/m3 | mass density (293.15 K, m1 = 0.1106): 813.913 ± 0.47 kg/m3 | mass density (293.15 K, m1 = 0.1255): 816.975 ± 0.46 kg/m3 | mass density (293.15 K, m1 = 0.157): 823.572 ± 0.46 kg/m3 | mass density (293.15 K, m1 = 0.1876): 830.096 ± 0.45 kg/m3 | mass density (293.15 K, m1 = 0.2171): 836.402 ± 0.44 kg/m3 | mass density (293.15 K, m1 = 0.2464): 842.656 ± 0.43 kg/m3 | mass density (293.15 K, m1 = 0.2747): 848.847 ± 0.43 kg/m3 | mass density (293.15 K, m1 = 0.3036): 855.253 ± 0.42 kg/m3 | speed of sound (298.15 K, m1 = 0.04954): 1108.2 ± 0.6 m/s | speed of sound (298.15 K, m1 = 0.0652): 1110.5 ± 0.6 m/s | speed of sound (298.15 K, m1 = 0.08043): 1112.6 ± 0.6 m/s | speed of sound (298.15 K, m1 = 0.09601): 1114.6 ± 0.61 m/s | speed of sound (298.15 K, m1 = 0.1106): 1116.9 ± 0.61 m/s | speed of sound (298.15 K, m1 = 0.1255): 1118.6 ± 0.61 m/s | speed of sound (298.15 K, m1 = 0.157): 1122.7 ± 0.62 m/s | speed of sound (298.15 K, m1 = 0.1876): 1127 ± 0.62 m/s | speed of sound (298.15 K, m1 = 0.2171): 1131 ± 0.63 m/s | speed of sound (298.15 K, m1 = 0.2464): 1135 ± 0.63 m/s | speed of sound (298.15 K, m1 = 0.2747): 1138.9 ± 0.64 m/s | speed of sound (298.15 K, m1 = 0.3036): 1143 ± 0.65 m/s | mass density (298.15 K, m1 = 0.04954): 796.648 ± 0.49 kg/m3 | mass density (298.15 K, m1 = 0.0652): 799.871 ± 0.48 kg/m3 | mass density (298.15 K, m1 = 0.08043): 802.983 ± 0.48 kg/m3 | mass density (298.15 K, m1 = 0.09601): 806.21 ± 0.48 kg/m3 | mass density (298.15 K, m1 = 0.1106): 809.247 ± 0.47 kg/m3 | mass density (298.15 K, m1 = 0.1255): 812.313 ± 0.47 kg/m3 | mass density (298.15 K, m1 = 0.157): 818.918 ± 0.46 kg/m3 | mass density (298.15 K, m1 = 0.1876): 825.452 ± 0.46 kg/m3 | mass density (298.15 K, m1 = 0.2171): 831.765 ± 0.45 kg/m3 | mass density (298.15 K, m1 = 0.2464): 838.024 ± 0.44 kg/m3 | mass density (298.15 K, m1 = 0.2747): 844.226 ± 0.43 kg/m3 | mass density (298.15 K, m1 = 0.3036): 850.642 ± 0.43 kg/m3 | mass density (303.15 K, m1 = 0.04954): 791.945 ± 0.5 kg/m3 | mass density (303.15 K, m1 = 0.0652): 795.174 ± 0.49 kg/m3 | mass density (303.15 K, m1 = 0.08043): 798.285 ± 0.49 kg/m3 | mass density (303.15 K, m1 = 0.09601): 801.517 ± 0.48 kg/m3 | mass density (303.15 K, m1 = 0.1106): 804.564 ± 0.48 kg/m3 | mass density (303.15 K, m1 = 0.1255): 807.634 ± 0.48 kg/m3 | mass density (303.15 K, m1 = 0.157): 814.251 ± 0.47 kg/m3 | mass density (303.15 K, m1 = 0.1876): 820.793 ± 0.46 kg/m3 | mass density (303.15 K, m1 = 0.2171): 827.115 ± 0.45 kg/m3 | mass density (303.15 K, m1 = 0.2464): 833.388 ± 0.45 kg/m3 | mass density (303.15 K, m1 = 0.2747): 839.592 ± 0.44 kg/m3 | mass density (303.15 K, m1 = 0.3036): 846.019 ± 0.43 kg/m3 | mass density (308.15 K, m1 = 0.04954): 787.216 ± 0.5 kg/m3 | mass density (308.15 K, m1 = 0.0652): 790.456 ± 0.5 kg/m3 | mass density (308.15 K, m1 = 0.08043): 793.568 ± 0.49 kg/m3 | mass density (308.15 K, m1 = 0.09601): 796.812 ± 0.49 kg/m3 | mass density (308.15 K, m1 = 0.1106): 799.855 ± 0.49 kg/m3 | mass density (308.15 K, m1 = 0.1255): 802.929 ± 0.48 kg/m3 | mass density (308.15 K, m1 = 0.157): 809.557 ± 0.48 kg/m3 | mass density (308.15 K, m1 = 0.1876): 816.116 ± 0.47 kg/m3 | mass density (308.15 K, m1 = 0.2171): 822.438 ± 0.46 kg/m3 | mass density (308.15 K, m1 = 0.2464): 828.73 ± 0.45 kg/m3 | mass density (308.15 K, m1 = 0.2747): 834.938 ± 0.45 kg/m3 | mass density (308.15 K, m1 = 0.3036): 841.375 ± 0.44 kg/m3 | mass density (313.15 K, m1 = 0.04954): 782.455 ± 0.51 kg/m3 | mass density (313.15 K, m1 = 0.0652): 785.712 ± 0.51 kg/m3 | mass density (313.15 K, m1 = 0.08043): 788.838 ± 0.5 kg/m3 | mass density (313.15 K, m1 = 0.09601): 792.084 ± 0.5 kg/m3 | mass density (313.15 K, m1 = 0.1106): 795.128 ± 0.49 kg/m3 | mass density (313.15 K, m1 = 0.1255): 798.211 ± 0.49 kg/m3 | mass density (313.15 K, m1 = 0.157): 804.844 ± 0.48 kg/m3 | mass density (313.15 K, m1 = 0.1876): 811.415 ± 0.47 kg/m3 | mass density (313.15 K, m1 = 0.2171): 817.746 ± 0.47 kg/m3 | mass density (313.15 K, m1 = 0.2464): 824.046 ± 0.46 kg/m3 | mass density (313.15 K, m1 = 0.2747): 830.254 ± 0.45 kg/m3 | mass density (313.15 K, m1 = 0.3036): 836.709 ± 0.45 kg/m3

Reference: the NIST ThermoML archive (doi:10.1021/je900732r)
